Patent US11554171B2, “Compounds and methods for the targeted degradation of bromodomain-containing proteins” (Arvinas Operations, Inc., priority 2015, dated 2023)

System: c-myc in 22RV-1 cells
Assay: Human c-myc ELISA assay
Format: cell-based
Details: Homo sapiens; for Emax: 22Rv1, 18 h, read-out: Degradation of BRD4: Maximum inhibition (%) c-Myc ELISA in 22RV1 cells; for DC50: 22Rv1, read-out: Degradation of BRD4: DC50 (uM) c-Myc ELISA in 22RV1 cells
Method in brief: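 22RV-1 cells treated 18 h with 8-point 1:3 compound dilutions (final top 300 nM or 1 μM, 0.1% DMSO). Cells lysed in RIPA buffer with protease/phosphatase inhibitors, and c-myc protein in cleared lysate quantified by ELISA against a standard curve. DC50 reported for c-myc suppression.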

Compound | Emax [%] | DC50 [µM]
Cc1ncsc1-c1ccc([C@H](C)NC(=O)[C@@H]2C[C@@H](O)CN2C(=O)[C@@H](NC(=O)COc2ccc(N3CC(NC(=O)C[C@@H]4N=C(c5ccc(Cl)cc5)c5c(sc(C)c5C)-n5c(C)nnc54)C3)nc2)C(C)(C)C)cc1 [Example 251, (2S,4R)-1-[(2S)-2-(2-{[6-(3-{2-[(9S)-7-(4-chlorophenyl)-4,5,13-trimethyl-3-thia-1,8,11,12-tetraazatricyclo[8.3.0.0^2,^6]trideca-2(6),4,7,10,12-pentaen-9-yl]acetamido}azetidin-1-yl)pyridin-3-yl]oxy}acetamido)-3,3-dimethylbutanoyl]-4-hydroxy-N-[(1S)-1-[4-(4-methyl-1,3-thiazol-5-yl)phenyl]ethyl]pyrrolidine-2-carboxamide] | 92.3 | < 0.01
Cc1ncsc1-c1ccc(CNC(=O)[C@@H]2C[C@@H](O)CN2C(=O)[C@@H](NC(=O)COCCCOCCOc2cc(NC(=O)C[C@@H]3N=C(c4ccc(Cl)cc4)c4c(sc(C)c4C)-n4c(C)nnc43)ccc2F)C(C)(C)C)cc1 [Example 130] | 99 | < 0.01
Cc1ncsc1-c1ccc([C@H](C)NC(=O)[C@@H]2C[C@@H](O)CN2C(=O)[C@@H](C(C)C)n2cc(-c3cc(F)cc(O[C@H]4C[C@H](NC(=O)C[C@@H]5N=C(c6ccc(Cl)cc6)c6c(sc(C)c6C)-n6c(C)nnc65)C4)c3)cn2)cc1 [Example 253] | 33.4 | > 1
Cc1ncsc1-c1ccc([C@H](C)NC(=O)[C@@H]2C[C@@H](O)CN2C(=O)[C@@H](NC(=O)CCc2cc(F)cc(O[C@@H](C)CNC(=O)C[C@@H]3N=C(c4ccc(Cl)cc4)c4c(sc(C)c4C)-n4c(C)nnc43)c2)C(C)(C)C)cc1 [Example 200] | 96.5 | < 0.01
Cc1ncsc1-c1ccc(CNC(=O)[C@@H]2C[C@@H](O)CN2C(=O)[C@@H](NC(=O)COCCOCCOCCCOCCOCCN(C)C(=O)C[C@@H]2N=C(c3ccc(Cl)cc3)c3c(sc(C)c3C)-n3c(C)nnc32)C(C)(C)C)cc1 [Example 17, (2S,4R)-1-[(2S)-2-(18-{2-[(9S)-7-(4-chlorophenyl)-4,5,13-trimethyl-3-thia-1,8,11,12-tetraazatricyclo[8.3.0.0^2,^6]trideca-2(6),4,7,10,12-pentaen-9-yl]-N-methylacetamido}-3,6,9,13,16-pentaoxaoctadecanamido)-3,3-dimethylbutanoyl]-4-hydroxy-N-{[4-(4-methyl-1,3-thiazol-5-yl)phenyl]methyl}pyrrolidine-2-carboxamide] | 85 | 0.1 to 1
Cc1ncsc1-c1ccc([C@H](C)NC(=O)[C@@H]2C[C@H](O)CN2C(=O)[C@@H](NC(=O)COCCCOCCNC(=O)C[C@@H]2N=C(c3ccc(Cl)cc3)c3c(sc(C)c3C)-n3c(C)nnc32)C(C)(C)C)cc1 [Example 71] | 11.2 | > 1
Cc1ncsc1-c1ccc([C@H](C)NC(=O)[C@@H]2C[C@@H](O)CN2C(=O)[C@@H](NC(=O)Cc2ccc(N3CC[C@H](NC(=O)C[C@@H]4N=C(c5ccc(Cl)cc5)c5c(sc(C)c5C)-n5c(C)nnc54)C3)cc2)C(C)(C)C)cc1 [Example 235, (2S,4R)-1-[(2S)-2-(2-{4-[(3S)-3-{2-[(9S)-7-(4-chlorophenyl)-4,5,13-trimethyl-3-thia-1,8,11,12-tetraazatricyclo[8.3.0.0^2,^6]trideca-2(6),4,7,10,12-pentaen-9-yl]acetamido}pyrrolidin-1-yl]phenyl}acetamido)-3,3-dimethylbutanoyl]-4-hydroxy-N-[(1S)-1-[4-(4-methyl-1,3-thiazol-5-yl)phenyl]ethyl]pyrrolidine-2-carboxamide] | 97.5 | < 0.01
Cc1ncsc1-c1ccc([C@H](C)NC(=O)[C@@H]2C[C@@H](O)CN2C(=O)[C@@H](NC(=O)c2ccc(OC(C)CCNC(=O)C[C@@H]3N=C(c4ccc(Cl)cc4)c4c(sc(C)c4C)-n4c(C)nnc43)cn2)C(C)(C)C)cc1 (stereo partly drawn) [Example 157] | 97 | < 0.01
Cc1ncsc1-c1ccc([C@H](C)NC(=O)[C@H]2C[C@H](O)CN2C(=O)[C@@H](NC(=O)COCCCOCCNC(=O)C[C@@H]2N=C(c3ccc(Cl)cc3)c3c(sc(C)c3C)-n3c(C)nnc32)C(C)(C)C)cc1 [Example 72, (2R, 4S)-1-[(2S)-2-{2-[3-(2-{2-[(9S)-7-(4-chlorophenyl)-4,5,13-trimethyl-3-thia-1,8,11,12-tetraazatricyclo[8.3.0.0^2,^6]trideca-2(6),4,7,10,12-pentaen-9-yl]acetamido}ethoxy)propoxy]acetamido}-3,3-dimethylbutanoyl]-4-hydroxy-N-[(1S)-1-[4-(4-methyl-1,3-thiazol-5-yl)phenyl]ethyl]pyrrolidine-2-carboxamide] | 10.2 | > 1
Cc1ncsc1-c1ccc([C@H](C)NC(=O)[C@@H]2C[C@@H](O)CN2C(=O)[C@@H](C(C)C)n2cc(-c3ccnc(N4CC[C@@H](NC(=O)C[C@@H]5N=C(c6ccc(Cl)cc6)c6c(sc(C)c6C)-n6c(C)nnc65)C4)c3)cn2)cc1 [Example 267] | 51.4 | > 1
Cc1ncsc1-c1ccc([C@H](C)NC(=O)[C@@H]2C[C@@H](O)CN2C(=O)[C@H](C(C)C)n2cc(-c3ccc(O[C@H]4C[C@H](NC(=O)C[C@@H]5N=C(c6ccc(Cl)cc6)c6c(sc(C)c6C)-n6c(C)nnc65)C4)nc3)cn2)cc1 [Example 269] | 96.4 | < 0.01
Cc1ncsc1-c1ccc(CNC(=O)[C@@H]2C[C@@H](O)CN2C(=O)[C@H](C(C)C)n2cc(Oc3ccc(CNC(=O)C[C@@H]4N=C(c5ccc(Cl)cc5)c5c(sc(C)c5C)-n5c(C)nnc54)cc3)cn2)cc1 [Example 238] | 93.3 | 0.01 to 0.1
Cc1sc2c(c1C)C(c1ccc(Cl)cc1)=N[C@@H](CC(=O)N[C@H]1C[C@@H](Oc3cc(-c4cnn([C@@H](C(=O)N5C[C@H](O)C[C@H]5C(=O)N[C@@H](C)c5ccc(-n6ccnc6C)cc5)C(C)C)c4)ccn3)C1)c1nnc(C)n1-2 [Example 287] | 17.3 | > 1
CC1=NN=C2C1c1sc(C)c(C)c1C(c1ccc(Cl)cc1)=N[C@H]2CC(=O)NCCOCCOCCC(=O)N[C@H](C(=O)N1C[C@H](O)CC1C(=O)N[C@@H](C)c1ccc(-c2scnc2C)cc1)C(C)(C)C (stereo partly drawn) [Example 136] | 96 | 0.01 to 0.1
Cc1ncsc1-c1ccc([C@H](C)NC(=O)[C@@H]2C[C@@H](O)CN2C(=O)[C@@H](C(C)C)n2cc(-c3cccc(O[C@H]4C[C@H](NC(=O)C[C@@H]5N=C(c6ccc(Cl)cc6)c6c(sc(C)c6C)-n6c(C)nnc65)C4)c3)cn2)cc1 [Example 244] | 95.5 | 0.01 to 0.1
Cc1ncsc1-c1ccc(CNC(=O)[C@@H]2C[C@@H](O)CN2C(=O)[C@@H](NC(=O)COCCOc2cc(-c3ccc([C@@H](C)NC(=O)C[C@@H]4N=C(c5ccc(Cl)cc5)c5c(sc(C)c5C)-n5c(C)nnc54)cc3)ccn2)C(C)(C)C)cc1 [Example 36, (2S,4R)-1-[(2S)-2-(2-{2-[(4-{4-[(1R)-1-{2-[(9S)-7-(4-chlorophenyl)-4,5,13-trimethyl-3-thia-1,8,11,12-tetraazatricyclo[8.3.0.0^2,^6]trideca-2(6),4,7,10,12-pentaen-9-yl]acetamido}ethyl]phenyl}pyridin-2-yl)oxy]ethoxy}acetamido)-3,3-dimethylbutanoyl]-4-hydroxy-N-{[4-(4-methyl-1,3-thiazol-5-yl)phenyl]methyl}pyrrolidine-2-carboxamide] | 97 | 0.01 to 0.1
Cc1ncsc1-c1ccc(CNC(=O)[C@@H]2C[C@@H](O)CN2C(=O)[C@@H](NC(=O)COCCCOCCNC(=O)CC2N=C(c3ccc(Cl)cc3)c3c(sc(C)c3C)-n3c(C)nnc32)C(C)(C)C)cc1 (stereo partly drawn) [Example 105] | 97 | 0.01 to 0.1
Cc1sc2c(c1C)C(c1ccc(Cl)cc1)=N[C@@H](CC(=O)N[C@H]1C[C@@H](Oc3cc(-c4cnn([C@H](C(=O)N5C[C@H](O)C[C@H]5C(=O)N[C@@H](C)c5ccc(-n6ccnc6C)cc5)C(C)C)c4)ccn3)C1)c1nnc(C)n1-2 [Example 289] | 93.8 | 0.1 to 1
Cc1ncsc1-c1ccc(CNC(=O)[C@@H]2C[C@@H](O)CN2C(=O)[C@@H](NC(=O)CCCCCCCCNC(=O)C[C@@H]2N=C(c3ccc(Cl)cc3)c3c(sc(C)c3C)-n3c(C)nnc32)C(C)(C)C)cc1 [Example 68] | 95.4 | 0.01 to 0.1
Cc1ncsc1-c1ccc([C@H](C)NC(=O)[C@@H]2C[C@@H](O)CN2C(=O)[C@@H](NC(=O)/C=C/c2cc(F)cc(O[C@@H](C)CNC(=O)C[C@@H]3N=C(c4ccc(Cl)cc4)c4c(sc(C)c4C)-n4c(C)nnc43)c2)C(C)(C)C)cc1 [Example 201] | 94.1 | < 0.01
Cc1sc2c(c1C)C(c1ccc(Cl)cc1)=N[C@@H](CC(=O)NCCOCCCOCC(=O)N[C@H](C(=O)N1C[C@H](O)C[C@H]1C(=O)NCc1ccc(C#N)cc1)C(C)(C)C)c1nnc(C)n1-2 [Example 75] | 58.5 | 0.1 to 1
Cc1sc2c(c1C)C(c1ccc(Cl)cc1)=N[C@@H](CC(=O)N[C@H]1C[C@H](Oc3ccc(CC(=O)N[C@H](C(=O)N4C[C@H](O)C[C@H]4C(=O)N[C@H](C)c4ccc(S(C)(=O)=O)cc4)C(C)(C)C)cc3)C1)c1nnc(C)n1-2 [Example 308] | 21 | > 1
Cc1sc2c(c1C)C(c1ccc(Cl)cc1)=NC(CC(=O)N[C@H]1C[C@H](Oc3ccc(CC(=O)N[C@H](C(=O)N4C[C@H](O)C[C@H]4C(=O)N[C@@H](C)c4ccc(C#N)cc4)C(C)(C)C)cc3)C1)c1nnc(C)n1-2 (stereo partly drawn) [Example 279] | 65.4 | 0.1 to 1
Cc1ncsc1-c1ccc([C@H](C)NC(=O)[C@@H]2C[C@@H](O)CN2C(=O)[C@@H](NC(=O)COc2cc(F)cc(O[C@H]3C[C@H](NC(=O)C[C@@H]4N=C(c5ccc(Cl)cc5)c5c(sc(C)c5C)-n5c(C)nnc54)C3)c2)C(C)(C)C)cc1 [Example 215] | 98 | < 0.01
